Values quoted from earlier work as cited in patent US5277910A, “Process for the preparation of a pharmaceutical composition selectively lowering the blood-lipid level” (priority 1991, dated 1994).

How the values were obtained:
monkeys = monkeys fed with alfalfa; in words
[1] = in words

| Compound | induced syndrome (monkeys) | uterotrophic activity [1] |
| --- | --- | --- |
| N=C(N)NOCCC(N)C(=O)O (centres unmarked) [Canavanine, 2-amino-4-(guanidinooxy)-butyric acid] | induces a syndrome resembling lupus erithemathosus | – |
| O=c1oc2cc(O)ccc2c2oc3cc(O)ccc3c12 [coumestrol] | – | high uterotrophic activity |
